# From patent US8404643B2, “Metastin derivatives and use thereof” (priority 2005, dated 2013)
# Square brackets hold non-standard residues; d marks the D form. Peptide text beside a SMILES is read from it. Phe(3-F) = N[C@@H](Cc1cccc(F)c1)C(=O)O; Phe(4-F) = N[C@@H](Cc1ccc(F)cc1)C(=O)O; Phe(4-Me) = Cc1ccc(C[C@H](N)C(=O)O)cc1; Phe(2-F) = N[C@@H](Cc1ccccc1F)C(=O)O; Arg(Me) = CNC(=N)NCCC[C@H](N)C(=O)O; Dap(CONH2) = NC(=O)NC[C@H](N)C(=O)O; Hyp = O=C(O)[C@@H]1C[C@@H](O)CN1; dNMeF = CN[C@H](Cc1ccccc1)C(=O)O; d4Pal = N[C@H](Cc1ccncc1)C(=O)O; NMeS = CN[C@@H](CO)C(=O)O; NMeA = CN[C@@H](C)C(=O)O; Dab = NCC[C@H](N)C(=O)O; 2Abz = Nc1ccccc1C(=O)O; azaGly = NNC(=O)O
# Molecular target: T1, hOT7T175 (Homo sapiens, UniProt Q969F8)
# T1 construct: expressed in transfected cells
# T1 sequence (Q969F8 whole entry L364H): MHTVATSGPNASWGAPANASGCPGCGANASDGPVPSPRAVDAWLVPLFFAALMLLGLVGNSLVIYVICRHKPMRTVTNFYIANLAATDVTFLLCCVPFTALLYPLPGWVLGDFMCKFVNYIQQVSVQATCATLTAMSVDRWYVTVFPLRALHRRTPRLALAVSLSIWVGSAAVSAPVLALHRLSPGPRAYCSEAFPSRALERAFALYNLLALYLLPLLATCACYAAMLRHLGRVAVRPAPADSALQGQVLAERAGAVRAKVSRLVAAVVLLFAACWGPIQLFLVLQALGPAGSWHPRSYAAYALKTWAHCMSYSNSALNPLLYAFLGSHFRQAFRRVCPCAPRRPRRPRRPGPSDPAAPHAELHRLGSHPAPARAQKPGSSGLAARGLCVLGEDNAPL
# Assay: Assay for intracellular Ca ion level-increasing activity using FLIPR
# Type: cell-based
# Conditions: hOT7T175/CHO cells, relative to Metastin (1-54)
# Outline: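 CHO/dhfr− cells stably transfected with hOT7T175, selected for high metastin response, loaded with Fluo3-AM for 1 h at 37 °C in HANKS/HBSS (pH 7.4) with probenecid. Peptides were diluted from 1×10^−3 M DMSO stock into HANKS/HBSS with 2.5 mM probenecid, 0.2% BSA, 0.1% CHAPS; intracellular Ca rise read by FLIPR.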
row,Specific Activity: intracellular Ca ion level-increasing activity [specific activity to Metastin (1-54)],SMILES
1,1.0,"CNC(=N)NCCC[C@H](NC(=O)[C@H](CC(C)C)NC(=O)NNC(=O)[C@H](Cc1ccccc1)NC(=O)[C@@H](NC(=O)[C@H](CCN)NC(=O)[C@@H]1C[C@@H](O)CN1C(=O)[C@@H](Cc1ccc(O)cc1)NC(C)=O)[C@@H](C)O)C(=O)N[C@@H](Cc1c[nH]c2ccccc12)C(N)=O [Compound No. 864, Ac-D-Tyr-Hyp-Dab-Thr-Phe-AzaGly-Leu-Arg(Me)-Trp-NH2] (Ac-[dY][Hyp][Dab]TF[azaGly]L[Arg(Me)]W-NH2)"
2,2.7,"CNC(=N)NCCC[C@H](NC(=O)[C@H](CC(C)C)NC(=O)NNC(=O)[C@H](Cc1ccccc1)NC(=O)[C@@H](NC(=O)[C@H](CC(N)=O)NC(=O)[C@H](C)N(C)C(=O)[C@@H](Cc1ccc(O)cc1)NC(C)=O)[C@@H](C)O)C(=O)N[C@@H](Cc1c[nH]c2ccccc12)C(N)=O [Compound No. 725, Ac-D-Tyr-NMeAla-Asn-Thr-Phe-AzaGly-Leu-Arg(Me)-Trp-NH2] (Ac-[dY][NMeA]NTF[azaGly]L[Arg(Me)]W-NH2)"
3,0.5,"CNC(=N)NCCC[C@H](NC(=O)[C@H](CC(C)C)NC(=O)NNC(=O)[C@H](Cc1ccccc1)NC(=O)CNC(=O)[C@H](CC(N)=O)NC(=O)[C@@H]1C[C@@H](O)CN1C(=O)[C@@H](Cc1ccc(O)cc1)NC(C)=O)C(=O)N[C@@H](Cc1c[nH]c2ccccc12)C(N)=O [Compound No. 813, Ac-D-Tyr-Hyp-Asn-Gly-Phe-AzaGly-Leu-Arg(Me)-Trp-NH2] (Ac-[dY][Hyp]NGF[azaGly]L[Arg(Me)]W-NH2)"
4,1.8,"CNC(=N)NCCC[C@H](NC(=O)[C@H](CC(C)C)NC(=O)NNC(=O)[C@H](Cc1ccccc1)NC(=O)[C@@H](NC(=O)[C@H](CC(N)=O)NC(=O)[C@@H](Cc1ccccc1)N(C)C(=O)[C@@H](Cc1ccc(O)cc1)NC(C)=O)[C@@H](C)O)C(=O)N[C@@H](Cc1c[nH]c2ccccc12)C(N)=O [Compound No. 782, Ac-D-Tyr-D-NMePhe-Asn-Thr-Phe-AzaGly-Leu-Arg(Me)-Trp-NH2] (Ac-[dY][dNMeF]NTF[azaGly]L[Arg(Me)]W-NH2)"
5,2.0,"CNC(=N)NCCC[C@H](NC(=O)[C@H](CC(C)C)NC(=O)NNC(=O)[C@H](Cc1ccccc1)NC(=O)[C@@H](NC(=O)[C@H](CC(N)=O)NC(=O)[C@@H]1C[C@@H](O)CN1C(=O)[C@@H](Cc1ccc(O)cc1)NC(C)=O)[C@@H](C)O)C(=O)N[C@@H](Cc1c[nH]c2ccccc12)C(N)=O [Compound No. 723, Ac-D-Tyr-Hyp-Asn-Thr-Phe-AzaGly-Leu-Arg(Me)-Trp-NH2] (Ac-[dY][Hyp]NTF[azaGly]L[Arg(Me)]W-NH2)"
6,2.3,"CNC(=N)NCCC[C@H](NC(=O)[C@H](CC(C)C)NC(=O)NNC(=O)[C@H](Cc1ccc(F)cc1)NC(=O)[C@@H](NC(=O)[C@H](CC(N)=O)NC(=O)[C@@H]1C[C@@H](O)CN1C(=O)[C@@H](Cc1ccc(O)cc1)NC(C)=O)[C@@H](C)O)C(=O)N[C@@H](Cc1c[nH]c2ccccc12)C(N)=O [Compound No. 787, Ac-D-Tyr-Hyp-Asn-Thr-Phe(4F)-AzaGly-Leu-Arg(Me)-Trp-NH2] (Ac-[dY][Hyp]NT[Phe(4-F)][azaGly]L[Arg(Me)]W-NH2)"
7,1.0,"CNC(=N)NCCC[C@H](NC(=O)[C@H](CC(C)C)NC(=O)NNC(=O)[C@H](Cc1ccccc1)NC(=O)[C@H](CO)N(C)C(=O)[C@H](CC(N)=O)NC(=O)[C@@H]1C[C@@H](O)CN1C(=O)[C@@H](Cc1ccc(O)cc1)NC(C)=O)C(=O)N[C@@H](Cc1c[nH]c2ccccc12)C(N)=O [Compound No. 809, Ac-D-Tyr-Hyp-Asn-NMeSer-Phe-AzaGly-Leu-Arg(Me)-Trp-NH2] (Ac-[dY][Hyp]N[NMeS]F[azaGly]L[Arg(Me)]W-NH2)"
8,0.9,"CNC(=N)NCCC[C@H](NC(=O)[C@H](CC(C)C)NC(=O)NNC(=O)[C@H](Cc1ccccc1)NC(=O)[C@@H](NC(=O)[C@@H](CC(N)=O)NC(=O)[C@@H]1C[C@@H](O)CN1C(=O)[C@@H](Cc1ccc(O)cc1)NC(C)=O)[C@@H](C)O)C(=O)N[C@@H](Cc1c[nH]c2ccccc12)C(N)=O [Compound No. 844, Ac-D-Tyr-Hyp-D-Asn-Thr-Phe-AzaGly-Leu-Arg(Me)-Trp-NH2] (Ac-[dY][Hyp][dN]TF[azaGly]L[Arg(Me)]W-NH2)"
9,3.4,"CNC(=N)NCCC[C@H](NC(=O)[C@H](CC(C)C)NC(=O)NNC(=O)[C@H](Cc1ccccc1)NC(=O)[C@@H](NC(=O)[C@H](CC(N)=O)NC(=O)[C@H](CC(C)C)NC(=O)[C@@H](Cc1ccc(O)cc1)NC(C)=O)[C@@H](C)O)C(=O)N[C@@H](Cc1c[nH]c2ccccc12)C(N)=O [Compound No. 743, Ac-D-Tyr-Leu-Asn-Thr-Phe-AzaGly-Leu-Arg(Me)-Trp-NH2] (Ac-[dY]LNTF[azaGly]L[Arg(Me)]W-NH2)"
10,2.6,"CNC(=N)NCCC[C@H](NC(=O)[C@H](CC(C)C)NC(=O)NNC(=O)[C@H](Cc1ccccc1)NC(=O)[C@@H](NC(=O)[C@H](CNC(N)=O)NC(=O)[C@@H](Cc1ccncc1)NC(=O)[C@@H](Cc1ccc(O)cc1)NC(C)=O)[C@@H](C)O)C(=O)N[C@@H](Cc1c[nH]c2ccccc12)C(N)=O [Compound No. 718, Ac-D-Tyr-D-Pya(4)-Alb-Thr-Phe-AzaGly-Leu-Arg(Me)-Trp-NH2] (Ac-[dY][d4Pal][Dap(CONH2)]TF[azaGly]L[Arg(Me)]W-NH2)"
11,2.6,"CNC(=N)NCCC[C@H](NC(=O)[C@H](CC(C)C)NC(=O)NNC(=O)[C@H](Cc1cccc(F)c1)NC(=O)[C@@H](NC(=O)[C@H](CC(N)=O)NC(=O)[C@@H]1C[C@@H](O)CN1C(=O)[C@@H](Cc1ccc(O)cc1)NC(C)=O)[C@@H](C)O)C(=O)N[C@@H](Cc1c[nH]c2ccccc12)C(N)=O [Compound No. 765, Ac-D-Tyr-Hyp-Asn-Thr-Phe(3F)-AzaGly-Leu-Arg(Me)-Trp-NH2] (Ac-[dY][Hyp]NT[Phe(3-F)][azaGly]L[Arg(Me)]W-NH2)"
12,0.8,"CNC(=N)NCCC[C@H](NC(=O)[C@H](CC(C)C)NC(=O)NNC(=O)[C@H](Cc1ccc(C)cc1)NC(=O)[C@@H](NC(=O)[C@H](CC(N)=O)NC(=O)[C@@H]1C[C@@H](O)CN1C(=O)[C@@H](Cc1ccc(O)cc1)NC(C)=O)[C@@H](C)O)C(=O)N[C@@H](Cc1c[nH]c2ccccc12)C(N)=O [Compound No. 874, Ac-D-Tyr-Hyp-Asn-Thr-Phe(4Me)-AzaGly-Leu-Arg(Me)-Trp-NH2] (Ac-[dY][Hyp]NT[Phe(4-Me)][azaGly]L[Arg(Me)]W-NH2)"
13,6.4,"CNC(=N)NCCC[C@H](NC(=O)[C@H](CC(C)C)NC(=O)NNC(=O)[C@H](Cc1ccccc1F)NC(=O)[C@@H](NC(=O)[C@H](CC(N)=O)NC(=O)[C@@H]1C[C@@H](O)CN1C(=O)[C@@H](Cc1ccc(O)cc1)NC(C)=O)[C@@H](C)O)C(=O)N[C@@H](Cc1c[nH]c2ccccc12)C(N)=O [Compound No. 763, Ac-D-Tyr-Hyp-Asn-Thr-Phe(2F)-AzaGly-Leu-Arg(Me)-Trp-NH2] (Ac-[dY][Hyp]NT[Phe(2-F)][azaGly]L[Arg(Me)]W-NH2)"

row,SMILES,Specific Activity: intracellular Ca ion level-increasing activity [specific activity to Metastin (1-54)]
1,"CNC(=N)NCCC[C@H](NC(=O)[C@H](CC(C)C)NC(=O)NNC(=O)[C@H](Cc1ccccc1)NC(=O)[C@@H](NC(=O)[C@H](CC(N)=O)NC(=O)c1ccccc1NC(=O)[C@@H](Cc1ccc(O)cc1)NC(C)=O)[C@@H](C)O)C(=O)N[C@@H](Cc1c[nH]c2ccccc12)C(N)=O [Compound No. 728, Ac-D-Tyr-Abz(2)-Asn-Thr-Phe-AzaGly-Leu-Arg(Me)-Trp-NH2] (Ac-[dY][2Abz]NTF[azaGly]L[Arg(Me)]W-NH2)",3.2
